For 32 compounds, IC50 results are on record in US20260317356A1, “SMALL MOLECULE MODULATORS OF OGG1” (AZKARRA THERAPEUTICS, INC., priority 2023, published 2026).

SMILES strings stand for the structures. Bounds are passed on as bounds.

Chain of hOGG1 (O15527 12-323): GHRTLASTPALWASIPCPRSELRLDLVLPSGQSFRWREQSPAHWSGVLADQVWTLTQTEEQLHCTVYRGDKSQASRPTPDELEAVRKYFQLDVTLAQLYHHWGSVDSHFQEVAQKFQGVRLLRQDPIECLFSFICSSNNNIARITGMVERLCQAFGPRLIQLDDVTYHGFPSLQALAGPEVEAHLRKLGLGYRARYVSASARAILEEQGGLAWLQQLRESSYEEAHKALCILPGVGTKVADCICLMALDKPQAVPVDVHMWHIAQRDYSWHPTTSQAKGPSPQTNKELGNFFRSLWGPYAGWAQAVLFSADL

The target of this assay is hOGG1 (Homo sapiens, UniProt O15527). Description: Biochemical fluorescence assay to measure enzymatic activity of hOGG1 (OGG1/APEX IC50). Also noted: Protein His-hOGG1 (12-323) was prepared; His (N); host or cells: E. coli. The settings on record: 1 nM OGG1+2 nM APEX+6 nM dsDNA (8-oxo-dG substrate); pH 7.5; RT 40 min; read-out: OGG1/APEX IC50. A digest of the protocol:
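Coupled glycosylase/AP-endonuclease read-out: 8-oxo-dG-containing dsDNA (6 nM) cleaved by 1 nM His-hOGG1 (12-323) plus 2 nM APEX1 over 40 min at room temperature, after 20 min enzyme–compound preincubation; buffer 20 mM Tris pH 7.5, 100 mM KCl, 0.1% BSA, 0.01% Tween. IC50 comes from sigmoidal 3-parameter fitting of % inhibition derived from TAMRA signal.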
As for `COc1cc(NC(=O)[C@H]2CC[C@@H](N3Cc4ccccc4C3=O)CC2)ccc1C` [Example 148, (1s,4s)-N-(3-Methoxy-4-methylphenyl)-4-(1-oxoisoindolin-2-yl)cyclohexanecarboxamide], the IC50 was in the range of 1000 to 10000 nM.

For `COc1cc(NC(=O)[C@H]2CC[C@@H](N3Cc4c(Cl)cccc4C3=O)CC2)ccc1C` [Example 149, (1s,4s)-4-(4-Chloro-1-oxoisoindolin-2-yl)-N-(3-methoxy-4-methylphenyl)cyclohexanecarboxamide], the IC50 fell in the range of 100 to 1000 nM.

For `COc1cc(NC(=O)[C@H]2CC[C@@H](N3Cc4c(Br)cccc4C3=O)CC2)ccc1C` [Example 150, (1s,4s)-4-(4-Bromo-1-oxoisoindolin-2-yl)-N-(3-methoxy-4-methylphenyl)cyclohexanecarboxamide], the IC50 was 100 to 1000 nM.

As to `COc1cc(NC(=O)[C@H]2CC[C@@H](N3Cc4c(cccc4C4CC4)C3=O)CC2)ccc1C` [Example 151, (1s,4s)-4-(4-Cyclopropyl-1-oxoisoindolin-2-yl)-N-(3-methoxy-4-methylphenyl)cyclohexanecarboxamide], the IC50 lay in the range of 1000 to 10000 nM.

As for `COc1cc(NC(=O)[C@H]2CC[C@@H](N3Cc4c(cccc4C4CCC4)C3=O)CC2)ccc1C` [Example 152, (1s,4s)-4-(4-Cyclobutyl-1-oxoisoindolin-2-yl)-N-(3-methoxy-4-methylphenyl)cyclohexanecarboxamide], the IC50 is more than 10000 nM.

Consider `COc1cc(NC(=O)[C@H]2CC[C@@H](N3Cc4c(C)cccc4C3=O)CC2)ccc1C` [Example 153, (1s,4s)-N-(3-Methoxy-4-methylphenyl)-4-(4-methyl-1-oxoisoindolin-2-yl)cyclohexanecarboxamide], for which the IC50 fell in the range of 100 to 1000 nM.

As for `COc1cc(NC(=O)[C@H]2CC[C@@H](N3Cc4c(N)cccc4C3=O)CC2)ccc1C` [Example 154, (1s,4s)-4-(4-Amino-1-oxoisoindolin-2-yl)-N-(3-methoxy-4-methylphenyl)cyclohexanecarboxamide], the IC50 lay in the range of 1000 to 10000 nM.

Regarding `C=Cc1cccc2c1CN([C@H]1CC[C@@H](C(=O)Nc3ccc(C)c(OC)c3)CC1)C2=O` [Example 155, (1s,4s)-N-(3-Methoxy-4-methylphenyl)-4-(1-oxo-4-vinylisoindolin-2-yl)cyclohexanecarboxamide], the IC50 fell in the range of 100 to 1000 nM.

Regarding `CCc1cccc2c1CN([C@H]1CC[C@@H](C(=O)Nc3ccc(C)c(OC)c3)CC1)C2=O` [Example 156, (1s,4s)-4-(4-Ethyl-1-oxoisoindolin-2-yl)-N-(3-methoxy-4-methylphenyl)cyclohexanecarboxamide], the IC50 lay in the range of 1000 to 10000 nM.

On to `C=C(C)c1cccc2c1CN([C@H]1CC[C@@H](C(=O)Nc3ccc(C)c(OC)c3)CC1)C2=O` [Example 157, (1s,4s)-N-(3-Methoxy-4-methylphenyl)-4-(1-oxo-4-(prop-1-en-2-yl)isoindolin-2-yl)cyclohexanecarboxamide], for which the IC50 was more than 10000 nM.

On to `COc1cc(NC(=O)[C@H]2CC[C@@H](N3Cc4c(cccc4C(C)C)C3=O)CC2)ccc1C` [Example 158, (1s,4s)-4-(4-Isopropyl-1-oxoisoindolin-2-yl)-N-(3-methoxy-4-methylphenyl)cyclohexanecarboxamide], for which the IC50 is more than 10000 nM.

For the compound `COc1cc(NC(=O)[C@H]2CC[C@@H](N3Cc4c(OC)cccc4C3=O)CC2)ccc1C` [Example 161, (1s,4s)-4-(4-Methoxy-1-oxoisoindolin-2-yl)-N-(3-methoxy-4-methylphenyl)cyclohexanecarboxamide], the IC50 fell in the range of 1000 to 10000 nM.

As to `COc1cc(NC(=O)[C@H]2CC[C@@H](N3Cc4c(C=O)cccc4C3=O)CC2)ccc1C` [Example 162, (1s,4s)-4-(4-Formyl-1-oxoisoindolin-2-yl)-N-(3-methoxy-4-methylphenyl)cyclohexanecarboxamide], the IC50 was 1000 to 10000 nM.

In the case of `COc1cc(NC(=O)[C@H]2CC[C@@H](N3Cc4c(Br)cc([N+](=O)[O-])cc4C3=O)CC2)ccc1C` [Example 163, (1s,4s)-4-(4-Bromo-6-nitro-1-oxoisoindolin-2-yl)-N-(3-methoxy-4-methylphenyl)cyclohexanecarboxamide], the IC50 was in the range of 100 to 1000 nM.

Regarding `COc1cc(NC(=O)[C@H]2CC[C@@H](N3Cc4c(F)cccc4C3=O)CC2)ccc1C` [Example 164, (1s,4s)-4-(4-Fluoro-1-oxoisoindolin-2-yl)-N-(3-methoxy-4-methylphenyl)cyclohexanecarboxamide], the IC50 fell in the range of 1000 to 10000 nM.

Regarding `COc1cc(NC(=O)[C@H]2CC[C@@H](N3Cc4c(Br)cc(N)cc4C3=O)CC2)ccc1C` [Example 165, (1s,4s)-4-(6-Amino-4-bromo-1-oxoisoindolin-2-yl)-N-(3-methoxy-4-methylphenyl)cyclohexanecarboxamide], the IC50 lay within 100 to 1000 nM.

For the compound `COc1cc(NC(=O)[C@H]2CC[C@@H](N3Cc4c(CF)cccc4C3=O)CC2)ccc1C` [Example 166, (1s,4s)-4-(4-(Fluoromethyl)-1-oxoisoindolin-2-yl)-N-(3-methoxy-4-methylphenyl)cyclohexanecarboxamide], the IC50 lay within 1000 to 10000 nM.

With `COc1cc(NC(=O)[C@H]2CC[C@@H](N3Cc4c(C)cc([N+](=O)[O-])cc4C3=O)CC2)ccc1C` [Example 167, (1s,4s)-N-(3-Methoxy-4-methylphenyl)-4-(4-methyl-6-nitro-1-oxoisoindolin-2-yl)cyclohexanecarboxamide], the IC50 is less than 100 nM.

For `COc1cc(NC(=O)[C@H]2CC[C@@H](N3Cc4c(Br)ccnc4C3=O)CC2)ccc1C` [Example 168, (1s,4s)-4-(4-Bromo-7-oxo-5H-pyrrolo[3,4-b]pyridin-6 (7H)-yl)-N-(3-methoxy-4-methylphenyl)cyclohexanecarboxamide], the IC50 fell in the range of 100 to 1000 nM.

Regarding `CCOC(=O)c1cccc2c1CN([C@H]1CC[C@@H](C(=O)Nc3ccc(C)c(OC)c3)CC1)C2=O` [Example 169, Ethyl 2-((1s,4s)-4-(3-methoxy-4-methylphenylcarbamoyl)cyclohexyl)-1-oxoisoindoline-4-carboxylate], the IC50 is more than 10000 nM.

Take `COc1cc(NC(=O)[C@H]2CC[C@@H](N3Cc4cc(Br)ccc4C3=O)CC2)ccc1C` [Example 170, (1s,4s)-4-(5-Bromo-1-oxoisoindolin-2-yl)-N-(3-methoxy-4-methylphenyl)cyclohexanecarboxamide]: the IC50 was more than 10000 nM.

With `CCOC(=O)c1ccc2c(c1)CN([C@H]1CC[C@@H](C(=O)Nc3ccc(C)c(OC)c3)CC1)C2=O` [Example 171, Ethyl 2-((1s,4s)-4-(3-methoxy-4-methylphenylcarbamoyl)cyclohexyl)-1-oxoisoindoline-5-carboxylate], the IC50 was more than 10000 nM.

In the case of `COc1cc(NC(=O)[C@H]2CC[C@@H](N3Cc4c(cccc4C(F)F)C3=O)CC2)ccc1C` [Example 172, (1s,4s)-4-(4-(Difluoromethyl)-1-oxoisoindolin-2-yl)-N-(3-methoxy-4-methylphenyl)cyclohexanecarboxamide], the IC50 lay within 1000 to 10000 nM.

As to `COc1cc(NC(=O)[C@H]2CC[C@@H](N3Cc4c(Br)cc(NCC5CCCN5)cc4C3=O)CC2)ccc1C` (some centres unmarked) [Example 173, (1s,4s)-4-(4-Bromo-1-oxo-6-(pyrrolidin-2-ylmethylamino)isoindolin-2-yl)-N-(3-methoxy-4-methylphenyl)cyclohexanecarboxamide], the IC50 was less than 100 nM.

Turning to `COc1cc(NC(=O)[C@H]2CC[C@@H](N3Cc4c(Br)cc(NC5COC5)cc4C3=O)CC2)ccc1C` [Example 174, (1s,4s)-4-(4-Bromo-6-(oxetan-3-ylamino)-1-oxoisoindolin-2-yl)-N-(3-methoxy-4-methylphenyl)cyclohexanecarboxamide], the IC50 lay in the range of 100 to 1000 nM.

For the compound `CNCCNc1cc(Br)c2c(c1)C(=O)N([C@H]1CC[C@@H](C(=O)Nc3ccc(C)c(OC)c3)CC1)C2` [Example 175, (1s,4s)-4-(4-Bromo-6-(2-(methylamino)ethylamino)-1-oxoisoindolin-2-yl)-N-(3-methoxy-4-methylphenyl)cyclohexanecarboxamide], the IC50 is less than 100 nM.

Take `COc1cc(NC(=O)[C@H]2CC[C@@H](N3Cc4c(ccnc4Br)C3=O)CC2)ccc1C` [Example 176, (1s,4s)-4-(4-Bromo-1-oxo-1H-pyrrolo[3,4-c]pyridin-2(3H)-yl)-N-(3-methoxy-4-methylphenyl)cyclohexanecarboxamide]: the IC50 fell in the range of 100 to 1000 nM.

As to `COc1cc(NC(=O)[C@H]2CC[C@@H](N3Cc4c(Br)cc(NCC5CNC5)cc4C3=O)CC2)ccc1C` [Example 177, (1s,4s)-4-(6-(Azetidin-3-ylmethylamino)-4-bromo-1-oxoisoindolin-2-yl)-N-(3-methoxy-4-methylphenyl)cyclohexanecarboxamide], the IC50 was less than 100 nM.

Take `COc1cc(NC(=O)[C@H]2CC[C@@H](N3Cc4c(Br)cc(NC(C)C(C)O)cc4C3=O)CC2)ccc1C` (some centres unmarked) [Example 178, (1s,4s)-4-(4-Bromo-6-(3-hydroxybutan-2-ylamino)-1-oxoisoindolin-2-yl)-N-(3-methoxy-4-methylphenyl)cyclohexanecarboxamide]: the IC50 lay within 1000 to 10000 nM.

In the case of `COc1cc(NC(=O)[C@H]2CC[C@@H](N3Cc4c(Br)cc(NCC(C)O)cc4C3=O)CC2)ccc1C` (some centres unmarked) [Example 179, (1s,4s)-4-(4-Bromo-6-(2-hydroxypropylamino)-1-oxoisoindolin-2-yl)-N-(3-methoxy-4-methylphenyl)cyclohexanecarboxamide], the IC50 was in the range of 100 to 1000 nM.

Take `COc1cc(NC(=O)[C@H]2CC[C@@H](N3Cc4c(Br)cc(NC5CNC5)cc4C3=O)CC2)ccc1C` [Example 180, (1s,4s)-4-(6-(Azetidin-3-ylamino)-4-bromo-1-oxoisoindolin-2-yl)-N-(3-methoxy-4-methylphenyl)cyclohexanecarboxamide]: the IC50 was less than 100 nM.

Consider `COc1cc(NC(=O)N2CCC(N3Cc4c(Br)cccc4C3=O)CC2)ccc1C` [Example 181, 4-(4-Bromo-1-oxoisoindolin-2-yl)-N-(3-methoxy-4-methylphenyl)piperidine-1-carboxamide], for which the IC50 was 1000 to 10000 nM.
